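Five compound concentrations were applied to cells in 96-well plates for 48 hours; endpoints were derived by simple linear interpolation of the resulting dose-response curve. The concentration for 50% growth inhibition is given as GI50.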 Active and inactive are the calls of the source. Cut-off read from the data, not from the text of the source: active = GI50 up to about 1.1 µM and inactive = higher.

Common to all, as to test: NCI anticancer screen, dose series, 48 h
For assay [1], the system named is 786-0.
Assay [2] has as its system A498.
The subject of assay [3] is COLO 205.
Assay [4] concerns DU-145.
Assay [5] relates to HT-29.
The test system of assay [6] is LOX IMVI.
The test system of assay [7] is MDA-MB-435.
The test system of assay [8] is MDA-N.
The test system of assay [9] is MOLT-4.
Assay [10] relates to NCI-H226.
Assay [11] deals with OVCAR-4.
Assay [12] concerns SK-MEL-28.
Assay [13] concerns SK-MEL-5.
For assay [14], the system named is SNB-19.
In assay [15] the test system is SNB-75.
The test system of assay [16] is T47D.
Assay [17] deals with TK-10.
In assay [18] the test system is U-251.
The subject of assay [19] is UACC-257.
Assay [20] relates to UO-31.

On to `COc1cc([C@H]2c3cc(O)c(OC)cc3C[C@]3(O)[C@@H]2CO[C@@H]3O)ccc1O`, for which the GI50 in assay [1], in assay [2], in assay [3], in assay [4], in [5] and in [6] was > 100 µM (inactive) in each case. In addition, the GI50 in [7], in assay [8], in [9], in assay [10], in [11] and in assay [12] was > 100 µM (inactive) in each case. Moreover, the GI50 in [13], in assay [14], in assay [15], in assay [16], in [17] and in [18] was > 100 µM (inactive) in each case. The GI50 in assay [19] and in assay [20] was > 100 µM (inactive) in each case.

For the compound `Cc1cccc(/C=N/NC(=S)N2CCCC2)n1`, the GI50 in [1] is 0.199 µM (active); in [2], 0.347 µM (active); in assay [3], 0.325 µM (active); in assay [4], 0.373 µM (active); in assay [5], 0.0528 µM (active); in [6] it was 0.267 µM (active). Also, the GI50 in [7] is 0.493 µM (active); in assay [8], 0.417 µM (active); in assay [9] it was 0.0687 µM (active); in assay [10], 2.41 µM (inactive); in assay [11], 0.195 µM (active); in assay [12], 1.02 µM (active). Further, the GI50 in assay [13] was 0.259 µM (active); in assay [14], 2.82 µM (inactive); in assay [15] it was 2.95 µM (inactive); in assay [16] it was < 0.0306 µM (active); in assay [17] it was 0.177 µM (active); in assay [18], 0.366 µM (active). Besides, the GI50 in [19] is 0.486 µM (active); in [20] it was 0.297 µM (active).

For the compound `C=C(Cl)C(Cl)(CBr)CCCC(C)C` (stereo not given), the GI50 was 9.66 µM (inactive) in assay [1]; 19.4 µM (inactive) in assay [2]; 19.4 µM (inactive) in [3]; 11.5 µM (inactive) in assay [4]; 4.42 µM (inactive) in assay [5]; > 100 µM (inactive) in [6]. Moreover, the GI50 in assay [7] is 37.5 µM (inactive); in [8], 22 µM (inactive); in [9], > 100 µM (inactive); in assay [10] it was > 100 µM (inactive); in assay [11], 33 µM (inactive); in assay [12], 19.4 µM (inactive). Also, the GI50 in assay [13] is > 100 µM (inactive); in assay [14], 18.7 µM (inactive); in [15], 8.83 µM (inactive); in [16], > 21.2 µM (inactive); in [17], 16.4 µM (inactive); in assay [18], 8.73 µM (inactive). Also, the GI50 in assay [19] was 14.6 µM (inactive); in assay [20], 16.3 µM (inactive).

The record behind these values is ChEMBL document CHEMBL1201862, “PubChem BioAssay data set” (2004).
